Measurements taken from paper PMC5224920, “Assessing the mechanism and therapeutic potential of modulators of the human Mediator complex-associated protein kinases” (eLife, 2016).

Test system: 12 single or co-culture in vitro tissue models of primary cells
Assay: Culture/co-culture cell model panel, extracellular biomarkers (DiscoveRx); as to CCL2/MCP-1: reference of the scale not given here; as to CD38: reference of the scale not given here; as to CD40: reference of the scale not given here; as to CD69: reference of the scale not given here; as to CXCL8/IL-8: reference of the scale not given here; as to CXCL9/MIG: reference of the scale not given here; as to IL-1alpha: reference of the scale not given here; as to M-CSF: reference of the scale not given here; as to PBMC Cytotoxicity: reference of the scale not given here
Format: cell-based, human
[1] = /Mphg Huvec+macrophages, 1.00E0 nM
[2] = /Mphg Huvec+macrophages, 1.00E1 nM
[3] = /Mphg Huvec+macrophages, 1.00E2 nM
[4] = /Mphg Huvec+macrophages, 1.00E3 nM
[5] = /Mphg Huvec+macrophages, 1.00E4 nM

In the case of `Cn1ncc2cc(-c3cnc(N)c(Cl)c3N3CCC4(CCNC4=O)CC3)ccc21` [CMPD 3], the CCL2/MCP-1 (/HDFNo, 1.00E4 nM) is reported as 0.044, the CD54/ICAM-1 (/HDFNo, 1.00E4 nM) is reported as -0.029 and the CD106/VCAM-1 (/HDFNo, 1.00E4 nM) is reported as 0.030. The “Collagen I” value (/HDFNo, 1.00E4 nM) was 0.106, the “Collagen III” value (/HDFNo, 1.00E4 nM) was 0.143 and the CCL2/MCP-1 [1] was 0.039. It also gave a CCL3/MIP-1alpha [1] of 0.008, a CD40 [1] of 0.007 and a CD69 [1] of 0.028. The CD106/VCAM-1 [1] was 0.039, the CXCL8/IL-8 [1] was 0.039 and the IL-1alpha [1] was 0.034. The M-CSF [1] was -0.015, the SRB [1] was -0.00253 and the SRB-Mphg [1] was 0.009. It also gave a sIL-10 [1] of 0.013, a CCL2/MCP-1 [2] of -0.0006 and a CCL3/MIP-1alpha [2] of -0.011. It also gave a CD40 [2] of -0.026, a CD69 [2] of 0.018 and a CD106/VCAM-1 [2] of 0.030. It also gave a CXCL8/IL-8 [2] of -0.00563, an IL-1alpha [2] of 0.012 and a M-CSF [2] of -0.035. The SRB [2] was -0.012, the SRB-Mphg [2] was 0.002 and the sIL-10 [2] was 0.075. The CCL2/MCP-1 [3] was -0.061, the CCL3/MIP-1alpha [3] was -0.020 and the CD40 [3] was 0.012. The CD69 [3] was 0.043, the CD106/VCAM-1 [3] was 0.019 and the CXCL8/IL-8 [3] was -0.007. The IL-1alpha [3] was 0.025, the M-CSF [3] was -0.036 and the SRB [3] was -0.017. It also gave an SRB-Mphg [3] of 0.012, a sIL-10 [3] of -8.75e-5 and a CCL2/MCP-1 [4] of -0.073. It also gave a CCL3/MIP-1alpha [4] of -0.030, a CD40 [4] of -0.015 and a CD69 [4] of 0.039. For the same compound, the CD106/VCAM-1 [4] was -0.014, the CXCL8/IL-8 [4] was -0.034 and the IL-1alpha [4] was -0.038. It also gave a M-CSF [4] of -0.070, an SRB [4] of -0.017 and an SRB-Mphg [4] of -0.00429. It also gave a sIL-10 [4] of -0.159, a CCL2/MCP-1 [5] of -0.116 and a CCL3/MIP-1alpha [5] of 0.039. It also gave a CD40 [5] of -0.005, a CD69 [5] of 0.023 and a CD106/VCAM-1 [5] of 0.022. It also gave a CXCL8/IL-8 [5] of 0.007, an IL-1alpha [5] of -0.039 and a M-CSF [5] of 0.009. It also gave an SRB [5] of -0.059, an SRB-Mphg [5] of -0.013 and a sIL-10 [5] of -0.238. For the same compound, the CCL2/MCP-1 (/TH2, 1.00E0 nM) was 0.045, the CCL26/Eotaxin-3 (/TH2, 1.00E0 nM) was -0.045 and the CD38 (/TH2, 1.00E0 nM) was 0.012. For the same compound, the CD40 (/TH2, 1.00E0 nM) was -0.010, the CD69 (/TH2, 1.00E0 nM) was -0.0036 and the CD87/uPAR (/TH2, 1.00E0 nM) was -0.045. It also gave a CD106/VCAM-1 (/TH2, 1.00E0 nM) of 0.030, a CXCL8/IL-8 (/TH2, 1.00E0 nM) of 0.048 and a CXCL9/MIG (/TH2, 1.00E0 nM) of 0.020. For the same compound, the “Collagen IV” value (/TH2, 1.00E0 nM) was 0.013, the “PBMC Cytotoxicity” value (/TH2, 1.00E0 nM) was -0.00216 and the SRB (/TH2, 1.00E0 nM) was -0.019. For the same compound, the sIL-17A (/TH2, 1.00E0 nM) was 0.036, the sIL-17F (/TH2, 1.00E0 nM) was -0.022 and the CCL2/MCP-1 (/TH2, 1.00E1 nM) was 0.002. For the same compound, the CCL26/Eotaxin-3 (/TH2, 1.00E1 nM) was -0.124, the CD38 (/TH2, 1.00E1 nM) was -0.011 and the CD40 (/TH2, 1.00E1 nM) was -0.078. For the same compound, the CD69 (/TH2, 1.00E1 nM) was -0.011, the CD87/uPAR (/TH2, 1.00E1 nM) was -0.094 and the CD106/VCAM-1 (/TH2, 1.00E1 nM) was 0.034. The CXCL8/IL-8 (/TH2, 1.00E1 nM) was -0.056, the CXCL9/MIG (/TH2, 1.00E1 nM) was 0.00749 and the “Collagen IV” value (/TH2, 1.00E1 nM) was 0.029. For the same compound, the “PBMC Cytotoxicity” value (/TH2, 1.00E1 nM) was -0.00148, the SRB (/TH2, 1.00E1 nM) was -0.057 and the sIL-17A (/TH2, 1.00E1 nM) was 0.095. It also gave a sIL-17F (/TH2, 1.00E1 nM) of -0.033, a CCL2/MCP-1 (/TH2, 1.00E2 nM) of -0.036 and a CCL26/Eotaxin-3 (/TH2, 1.00E2 nM) of -0.132. The CD38 (/TH2, 1.00E2 nM) was -0.00367, the CD40 (/TH2, 1.00E2 nM) was -0.095 and the CD69 (/TH2, 1.00E2 nM) was -0.007. It also gave a CD87/uPAR (/TH2, 1.00E2 nM) of -0.133, a CD106/VCAM-1 (/TH2, 1.00E2 nM) of 0.023 and a CXCL8/IL-8 (/TH2, 1.00E2 nM) of -0.038. The CXCL9/MIG (/TH2, 1.00E2 nM) was 0.008, the “Collagen IV” value (/TH2, 1.00E2 nM) was 0.005 and the “PBMC Cytotoxicity” value (/TH2, 1.00E2 nM) was -0.011. The SRB (/TH2, 1.00E2 nM) was -0.080, the sIL-17A (/TH2, 1.00E2 nM) was 0.189 and the sIL-17F (/TH2, 1.00E2 nM) was 0.137. For the same compound, the CCL2/MCP-1 (/TH2, 1.00E3 nM) was -0.046, the CCL26/Eotaxin-3 (/TH2, 1.00E3 nM) was -0.134 and the CD38 (/TH2, 1.00E3 nM) was -0.012. It also gave a CD40 (/TH2, 1.00E3 nM) of -0.080, a CD69 (/TH2, 1.00E3 nM) of -0.021 and a CD87/uPAR (/TH2, 1.00E3 nM) of -0.141. For the same compound, the CD106/VCAM-1 (/TH2, 1.00E3 nM) was 0.028, the CXCL8/IL-8 (/TH2, 1.00E3 nM) was -0.057 and the CXCL9/MIG (/TH2, 1.00E3 nM) was 0.006. For the same compound, the “Collagen IV” value (/TH2, 1.00E3 nM) was 0.010, the “PBMC Cytotoxicity” value (/TH2, 1.00E3 nM) was -0.023 and the SRB (/TH2, 1.00E3 nM) was -0.067. The sIL-17A (/TH2, 1.00E3 nM) was 0.134, the sIL-17F (/TH2, 1.00E3 nM) was -0.079 and the CCL2/MCP-1 (/TH2, 1.00E4 nM) was -0.053. It also gave a CCL26/Eotaxin-3 (/TH2, 1.00E4 nM) of -0.136, a CD38 (/TH2, 1.00E4 nM) of -0.016 and a CD40 (/TH2, 1.00E4 nM) of -0.061. The CD69 (/TH2, 1.00E4 nM) was -0.044, the CD87/uPAR (/TH2, 1.00E4 nM) was -0.146 and the CD106/VCAM-1 (/TH2, 1.00E4 nM) was 0.003. For the same compound, the CXCL8/IL-8 (/TH2, 1.00E4 nM) was -0.053, the CXCL9/MIG (/TH2, 1.00E4 nM) was 0.006 and the “Collagen IV” value (/TH2, 1.00E4 nM) was 0.012. The “PBMC Cytotoxicity” value (/TH2, 1.00E4 nM) was -0.036, the SRB (/TH2, 1.00E4 nM) was -0.126 and the sIL-17A (/TH2, 1.00E4 nM) was 0.054. For the same compound, the sIL-17F (/TH2, 1.00E4 nM) was -0.082, the CCL26/Eotaxin-3 (BENo, 1.00E0 nM) was 0.067 and the CD54/ICAM-1 (BENo, 1.00E0 nM) was 0.017. For the same compound, the CD87/uPAR (BENo, 1.00E0 nM) was 0.077, the CXCL8/IL-8 (BENo, 1.00E0 nM) was 0.016 and the CXCL9/MIG (BENo, 1.00E0 nM) was 0.068. It also gave a CXCL10/IP-10 (BENo, 1.00E0 nM) of 0.115, a CXCL11/I-TAC (BENo, 1.00E0 nM) of 0.039 and an EGFR (BENo, 1.00E0 nM) of 0.00071. For the same compound, the HLA-DR (BENo, 1.00E0 nM) was 0.048, the IL-1alpha (BENo, 1.00E0 nM) was 0.048 and the “Keratin 8/18” value (BENo, 1.00E0 nM) was 0.051. The MMP-1 (BENo, 1.00E0 nM) was 0.028, the MMP-9 (BENo, 1.00E0 nM) was 0.043 and the PAI-I (BENo, 1.00E0 nM) was 0.010. The SRB (BENo, 1.00E0 nM) was 0.002, the tPA (BENo, 1.00E0 nM) was 0.014 and the uPA (BENo, 1.00E0 nM) was 0.036. For the same compound, the CCL26/Eotaxin-3 (BENo, 1.00E1 nM) was -0.035, the CD54/ICAM-1 (BENo, 1.00E1 nM) was -0.015 and the CD87/uPAR (BENo, 1.00E1 nM) was 0.086. For the same compound, the CXCL8/IL-8 (BENo, 1.00E1 nM) was -0.015, the CXCL9/MIG (BENo, 1.00E1 nM) was 0.025 and the CXCL10/IP-10 (BENo, 1.00E1 nM) was 0.020. The CXCL11/I-TAC (BENo, 1.00E1 nM) was 0.032, the EGFR (BENo, 1.00E1 nM) was -0.005 and the HLA-DR (BENo, 1.00E1 nM) was 0.084. For the same compound, the IL-1alpha (BENo, 1.00E1 nM) was 0.021, the “Keratin 8/18” value (BENo, 1.00E1 nM) was 0.032 and the MMP-1 (BENo, 1.00E1 nM) was 0.022. The MMP-9 (BENo, 1.00E1 nM) was 0.026, the PAI-I (BENo, 1.00E1 nM) was 0.003 and the SRB (BENo, 1.00E1 nM) was 0.000675. For the same compound, the tPA (BENo, 1.00E1 nM) was -0.00178, the uPA (BENo, 1.00E1 nM) was 0.034 and the CCL26/Eotaxin-3 (BENo, 1.00E2 nM) was 0.029. The CD54/ICAM-1 (BENo, 1.00E2 nM) was -0.086, the CD87/uPAR (BENo, 1.00E2 nM) was 0.074 and the CXCL8/IL-8 (BENo, 1.00E2 nM) was 0.050. For the same compound, the CXCL9/MIG (BENo, 1.00E2 nM) was 0.027, the CXCL10/IP-10 (BENo, 1.00E2 nM) was 0.029 and the CXCL11/I-TAC (BENo, 1.00E2 nM) was 0.038. It also gave an EGFR (BENo, 1.00E2 nM) of -0.028, an HLA-DR (BENo, 1.00E2 nM) of 0.002 and an IL-1alpha (BENo, 1.00E2 nM) of 0.024. The “Keratin 8/18” value (BENo, 1.00E2 nM) was 0.019, the MMP-1 (BENo, 1.00E2 nM) was -0.044 and the MMP-9 (BENo, 1.00E2 nM) was -0.012. The PAI-I (BENo, 1.00E2 nM) was -0.079, the SRB (BENo, 1.00E2 nM) was -0.00126 and the tPA (BENo, 1.00E2 nM) was -0.018. The uPA (BENo, 1.00E2 nM) was 0.039, the CCL26/Eotaxin-3 (BENo, 1.00E3 nM) was 0.016 and the CD54/ICAM-1 (BENo, 1.00E3 nM) was -0.027. The CD87/uPAR (BENo, 1.00E3 nM) was 0.042, the CXCL8/IL-8 (BENo, 1.00E3 nM) was -0.000244 and the CXCL9/MIG (BENo, 1.00E3 nM) was 0.034. It also gave a CXCL10/IP-10 (BENo, 1.00E3 nM) of 0.016, a CXCL11/I-TAC (BENo, 1.00E3 nM) of 0.033 and an EGFR (BENo, 1.00E3 nM) of 0.028. The HLA-DR (BENo, 1.00E3 nM) was 0.049, the IL-1alpha (BENo, 1.00E3 nM) was 0.018 and the “Keratin 8/18” value (BENo, 1.00E3 nM) was 0.022. For the same compound, the MMP-1 (BENo, 1.00E3 nM) was -0.000325, the MMP-9 (BENo, 1.00E3 nM) was -0.016 and the PAI-I (BENo, 1.00E3 nM) was -0.078.
